Data on 15 compounds can be found in patent publication US20250228239A1, “MOLECULES HAVING PESTICIDAL UTILITY, AND INTERMEDIATES, COMPOSITIONS, AND PROCESSES, RELATED THERETO” (priority 2024, published 2025).

Format in all cases: in vivo
The subject of experiment [1] is Green Peach Aphid (Myzus persicae, MYZUPE). Put plainly: Bioassays on Green Peach Aphid (GPA), foliar spray on cabbage seedlings. The settings on record: 72 h. A digest of the protocol: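 Percent control (Abbott-corrected versus solvent-sprayed plants) comes from live-aphid counts three days after treatment at about 25° C. Test solution at 200 ppm was sprayed to runoff onto both leaf surfaces of cabbage seedlings infested a day earlier with 20-50 aphids; four replicate pots.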

Experiment [2] relates to Yellow Fever Mosquito (Aedes aegypti, AEDSAE). The following applies: for YFM rating: Table ABC / ABC-DP rating. A digest of the protocol:
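Compounds from DMSO master plates (4000 ppm stock) diluted in 90:10 water/acetone, then dispensed into six replicate plates and infested with ~1-day-old Aedes aegypti larvae in liver-powder water. Held covered at room temperature for 3 days; each well scored for larval mortality and graded on a rating scale.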

For experiment [3], the system named is Beet Armyworm (Spodoptera exigua, LAPHEG). Kind of experiment: Bioassays on Beet Armyworm (BAW), 128-well diet tray assay. The following applies: for pest or weed control at 50 µg/cm2: Spodoptera exigua. A digest of the protocol: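 Mortality of second-instar larvae (1–5/well) on artificial diet treated with 50 μg/cm^2 compound, read after 5–7 days at 25° C.; values are means of eight wells.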

The subject of experiment [4] is Cabbage Looper (Trichoplusia ni, TRIPNI). Kind of experiment: Bioassays on Cabbage Looper (CL), 128-well diet tray assay. The following applies: for pest or weed control at 50 µg/cm2: Trichoplusia ni. A digest of the protocol: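 Second-instar larvae (1–5 per well) placed on artificial diet surface-treated with 50 μg/cm^2 test molecule applied in 90:10 acetone-water and dried. Held at 25° C., 14:10 light-dark, for five to seven days. Percent mortality scored per well and averaged over eight wells.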

Where [5] appears, read: Green Peach Aphid, rating class, read-out: GPA.
Where [6] appears, read: Yellow Fever Mosquito, rating class.
The mark [7] stands for this setting: Beet Armyworm, rating class, read-out: BAW.
Where [8] appears, read: Cabbage Looper, rating class, read-out: CL.
Where [9] appears, read: Green Peach Aphid, Table ABC / ABC-DP rating, read-out: GPA rating.
[10] abbreviates: Beet Armyworm, Table ABC / ABC-DP rating, read-out: BAW rating.
Where [11] appears, read: Cabbage Looper, Table ABC / ABC-DP rating, read-out: CL rating.
Where [12] appears, read: Table ABC: Biological Results, species GPA, read-out: GPA.
[13] abbreviates: Table ABC: Biological Results, species YFM.
[14] abbreviates: Table ABC: Biological Results, species BAW, read-out: BAW.
Where [15] appears, read: Table ABC: Biological Results, species CL, read-out: CL.

Read-outs that look alike come from different tables or passages of the source.

With `CC(=O)Nc1c(F)cc(F)c(NC(=O)c2cc(NC(=O)[C@H]3[C@H](c4ccc(F)c(Cl)c4)C3(Cl)Cl)ccc2Cl)c1F` [F1627, N-(3-Acetamido-2,4,6-trifluorophenyl)-2-chloro-5-((1R,3R)-2,2-dichloro-3-(3-chloro-4-fluorophenyl)cyclopropane-1-carboxamido)benzamide], the pest or weed control at 200 µg/mL in experiment [1] (setting [5]) lay in the range of 80 to 100%. The YFM result in experiment [2] (setting [6]) was “A (80–100)”. Besides, the pest or weed control at 50 µg/cm2 in experiment [3] (setting [7]) and in experiment [4] (setting [8]) was 50 to 100% in each case.
In the case of `Cc1cc(NC(=O)[C@H]2[C@H](c3ccc(F)c(Cl)c3)C2(Cl)Cl)cc(C(=O)NCCCCl)c1Cl` (relative stereo) [F2040, trans-2-Chloro-N-(3-chloropropyl)-5-(2,2-dichloro-3-(3-chloro-4-fluorophenyl)cyclopropane-1-carboxamido)-3-methylbenzamide], the pest or weed control at 200 µg/mL in experiment [1] (setting [9]) was 0 to 80%. Besides, the YFM rating result in experiment [2] (Yellow Fever Mosquito) is on record as “A (80–100)”. Moreover, the pest or weed control at 50 µg/cm2 in experiment [3] (setting [10]) and in experiment [4] (setting [11]) was 50 to 100% each time.
Regarding `O=C(NCCNC(=O)C(F)(F)F)c1cc(NC(=O)[C@H]2[C@H](c3cc(Cl)cc(Cl)c3)C2(Cl)Cl)ccc1Cl` (relative stereo) [F2082, trans-2-Chloro-5-(2,2-dichloro-3-(3,5-dichlorophenyl)cyclopropane-1-carboxamido)-N-(2-(2,2,2-trifluoroacetamido)ethyl)benzamide], the pest or weed control at 200 µg/mL in experiment [1] (setting [9]) lay in the range of 80 to 100%. For the same compound, in experiment [2] (Yellow Fever Mosquito), the YFM rating entry was “B (More than 0 – Less than 80)”. In addition, the BAW rating result in experiment [3] (Beet Armyworm, Table ABC / ABC-DP rating) is “A (50–100)”. Also, the CL rating result in experiment [4] (Cabbage Looper, Table ABC / ABC-DP rating) is “A (50–100)”.
With `O=C(Nc1ccc(F)c(NC(=O)C(F)(F)Cl)c1F)c1cc(NC(=O)[C@H]2[C@H](c3ccc(F)c(Cl)c3)C2(Cl)Cl)ccc1Cl` [F1697, 2-Chloro-N-(3-(2-chloro-2,2-difluoroacetamido)-2,4-difluorophenyl)-5-((1R,3R)-2,2-dichloro-3-(3-chloro-4-fluorophenyl)cyclopropane-1-carboxamido)benzamide], in experiment [1] (setting [5]), the pest or weed control at 200 µg/mL was in the range of 80 to 100%. The YFM entry in experiment [2] (setting [6]) is reported as “A (80–100)”. Moreover, the pest or weed control at 50 µg/cm2 in experiment [3] (setting [7]) and in experiment [4] (setting [8]) was 50 to 100% in each case.
In the case of `O=C(NCC(F)(F)F)c1c(F)ccc(NC(=O)[C@H]2[C@H](c3ccc(F)c(Cl)c3)C2(Cl)Cl)c1F` (relative stereo) [F2017, trans-3-(2,2-Dichloro-3-(3-chloro-4-fluorophenyl)cyclopropane-1-carboxamido)-2,6-difluoro-N-(2,2,2-trifluoroethyl)benzamide], the pest or weed control at 200 µg/mL in experiment [1] (setting [9]) was 80 to 100%. Besides, in experiment [2] (Yellow Fever Mosquito), the YFM rating entry is on record as “A (80–100)”. The pest or weed control at 50 µg/cm2 in experiment [3] (setting [10]) and in experiment [4] (setting [11]) was 50 to 100% throughout.
With `Nc1c(F)ccc(NC(=O)c2cc(NC(=O)[C@H]3[C@H](c4ccc(Cl)c(C(F)(F)F)c4)C3(Cl)Cl)ccc2Cl)c1F` (relative stereo) [F1079, trans-N-(3-Amino-2,4-difluorophenyl)-2-chloro-5-(2,2-dichloro-3-(4-chloro-3-(trifluoromethyl)phenyl)cyclopropane-1-carboxamido)benzamide], the pest or weed control at 200 µg/mL in experiment [1] (setting [12]) is 80 to 100%. Also, the YFM result in experiment [2] (setting [13]) is listed as “A (80–100)”. Moreover, the pest or weed control at 50 µg/cm2 in experiment [3] (setting [14]) and in experiment [4] (setting [15]) was 50 to 100% in each case.
As for `CCN(C(=O)c1cc(NC(=O)[C@H]2[C@H](c3cc(Cl)cc(Cl)c3)C2(Cl)Cl)ccc1Cl)c1ccc(F)cc1C#N` (relative stereo) [F1091, trans-2-Chloro-N-(2-cyano-4-fluorophenyl)-5-(2,2-dichloro-3-(3,5-dichlorophenyl)cyclopropane-1-carboxamido)-N-ethylbenzamide], in experiment [1] (setting [12]), the pest or weed control at 200 µg/mL was in the range of 0 to 80%. Besides, the YFM entry in experiment [2] (setting [13]) was “A (80–100)”. The pest or weed control at 50 µg/cm2 in experiment [3] (setting [14]) and in experiment [4] (setting [15]) was 50 to 100% in each case.
In the case of `O=C(CC1CC1)Nc1c(F)ccc(NC(=O)c2cc(NC(=O)[C@H]3[C@H](c4ccc(F)c(Cl)c4)C3(Cl)Cl)ccc2Cl)c1F` [F1702, 2-Chloro-N-(3-(2-cyclopropylacetamido)-2,4-difluorophenyl)-5-((1R,3R)-2,2-dichloro-3-(3-chloro-4-fluorophenyl)cyclopropane-1-carboxamido)benzamide], the pest or weed control at 200 µg/mL in experiment [1] (setting [5]) is 80 to 100%. The YFM entry in experiment [2] (setting [6]) is given as “A (80–100)”. Also, the pest or weed control at 50 µg/cm2 in experiment [3] (setting [7]) and in experiment [4] (setting [8]) was 50 to 100% each time.
`CCOC(C)C(=O)Nc1c(F)ccc(NC(=O)c2cc(NC(=O)[C@H]3[C@H](c4cccc(C(F)(F)F)c4)C3(Cl)Cl)ccc2Cl)c1F` (stereo partly drawn) [F1737, 2-Chloro-5-((1R,3R)-2,2-dichloro-3-(3-(trifluoromethyl)phenyl)cyclopropane-1-carboxamido)-N-(3-(2-ethoxypropanamido)-2,4-difluorophenyl)benzamide]: the pest or weed control at 200 µg/mL in experiment [1] (setting [5]) is 0 to 80%. In addition, the YFM result in experiment [2] (setting [6]) was “A (80–100)”. The pest or weed control at 50 µg/cm2 in experiment [3] (setting [7]) and in experiment [4] (setting [8]) was 50 to 100% throughout.
On to `O=C(Nc1cc(NC(=O)C(F)(F)F)c(F)cc1F)c1cc(NC(=O)[C@H]2[C@H](c3ccc(Cl)c(Cl)c3)C2(Cl)Cl)ccc1Cl` [F1245, 2-Chloro-5-((1R,3R)-2,2-dichloro-3-(3,4-dichlorophenyl)cyclopropane-1-carboxamido)-N-(2,4-difluoro-5-(2,2,2-trifluoroacetamido)phenyl)benzamide], for which the pest or weed control at 200 µg/mL in experiment [1] (setting [12]) was in the range of 0 to 80%. Besides, the YFM result in experiment [2] (setting [13]) was “A (80–100)”. The pest or weed control at 50 µg/cm2 in experiment [3] (setting [14]) and in experiment [4] (setting [15]) was 50 to 100% in each case.
Take `O=C(Nc1ccc(F)c(NC(=O)C(F)(F)F)c1F)c1cc(NC(=O)[C@H]2[C@H](c3ccc(Cl)c(Cl)c3)C2(Cl)Cl)ccc1F` [F1492, 5-((1R,3R)-2,2-Dichloro-3-(3,4-dichlorophenyl)cyclopropane-1-carboxamido)-N-(2,4-difluoro-3-(2,2,2-trifluoroacetamido)phenyl)-2-fluorobenzamide]: the pest or weed control at 200 µg/mL in experiment [1] (setting [5]) was 0 to 80%. Further, the YFM entry in experiment [2] (setting [6]) is on record as “A (80–100)”. Besides, the pest or weed control at 50 µg/cm2 in experiment [3] (setting [7]) and in experiment [4] (setting [8]) was 50 to 100% throughout.
`CC(=O)Nc1cccc(F)c1NC(=O)c1cc(NC(=O)[C@H]2[C@H](c3cc(Cl)cc(Cl)c3)C2(Cl)Cl)ccc1Cl` (relative stereo) [F1636, trans-N-(2-Acetamido-6-fluorophenyl)-2-chloro-5-(2,2-dichloro-3-(3,5-dichlorophenyl)cyclopropane-1-carboxamido)benzamide]: the pest or weed control at 200 µg/mL in experiment [1] (setting [5]) fell in the range of 0 to 80%. In addition, the YFM result in experiment [2] (setting [6]) was “A (80–100)”. For the same compound, the pest or weed control at 50 µg/cm2 in experiment [3] (setting [7]) and in experiment [4] (setting [8]) was 50 to 100% throughout.
In the case of `CCOC(C)C(=O)Nc1c(F)ccc(NC(=O)c2cc(NC(=O)[C@H]3[C@H](c4ccc(F)c(C(F)(F)F)c4)C3(Cl)Cl)ccc2Cl)c1F` (stereo partly drawn) [F1364, 2-Chloro-5-((1R,3R)-2,2-dichloro-3-(4-fluoro-3-(trifluoromethyl)phenyl)cyclopropane-1-carboxamido)-N-(3-(2-ethoxypropanamido)-2,4-difluorophenyl)benzamide], the pest or weed control at 200 µg/mL in experiment [1] (setting [12]) was in the range of 0 to 80%. In addition, the YFM entry in experiment [2] (setting [13]) is “A (80–100)”. For the same compound, the pest or weed control at 50 µg/cm2 in experiment [3] (setting [14]) and in experiment [4] (setting [15]) was 50 to 100% each time.
`O=C1CCC(C(=O)Nc2c(F)ccc(NC(=O)c3cc(NC(=O)[C@H]4[C@H](c5ccc(F)c(C(F)(F)F)c5)C4(Cl)Cl)ccc3Cl)c2F)O1` (stereo partly drawn) [F1625, N-(3-(2-Chloro-5-((1R,3R)-2,2-dichloro-3-(4-fluoro-3-(trifluoromethyl)phenyl)cyclopropane-1-carboxamido)benzamido)-2,6-difluorophenyl)-5-oxotetrahydrofuran-2-carboxamide]: the pest or weed control at 200 µg/mL in experiment [1] (setting [5]) fell in the range of 0 to 80%. Moreover, the YFM result in experiment [2] (setting [6]) is listed as “A (80–100)”. Further, the pest or weed control at 50 µg/cm2 in experiment [3] (setting [7]) and in experiment [4] (setting [8]) was 50 to 100% in each case.
As to `N#Cc1cc(F)ccc1N(Cc1ccccc1)C(=O)c1cc(NC(=O)[C@H]2[C@H](c3cc(Cl)cc(Cl)c3)C2(Cl)Cl)ccc1Cl` (relative stereo) [F1099, trans-N-Benzyl-2-chloro-N-(2-cyano-4-fluorophenyl)-5-(2,2-dichloro-3-(3,5-dichlorophenyl)cyclopropane-1-carboxamido)benzamide], the pest or weed control at 200 µg/mL in experiment [1] (setting [12]) was in the range of 0 to 80%. Also, in experiment [2] (setting [13]), the YFM result is reported as “A (80–100)”. Also, the pest or weed control at 50 µg/cm2 in experiment [3] (setting [14]) and in experiment [4] (setting [15]) was 50 to 100% throughout.
